US11957682B2, “Compounds and methods for regulating, limiting, or inhibiting AVIL expression” (University of Virginia Patent Foundation, priority 2017, dated 2024)

Tests used:
[1] = system: astrocyte cells (non-cancer control); test: IC50 for inhibiting cell growth in astrocyte cells (non-cancer control); type: cell-based, human; conditions: inhibition of cell growth
Experimental: (§1) Cell Culture. The rhabdomyosarcoma cell lines RH30, RH18, and RD were cultured in RPMI-1640 medium with 10% FBS. RH18 was a gift from Dr. P. J. Houghton. Glioblastoma cell line U87 cells were cultured in Minimum Essential Medium Eagle (MEM), supplemented with 1 mM sodium pyruvate, 1% nonessential amino acids, 0.15% sodium bicarbonate, and 10% fetal bovine serum (FBS); T98G cells were cultured in MEM with 10% FBS; A172 cells were cultured in Dulbecco's modified Eagle's medium (DMEM) with 4.5 g/L glucose, and supplemented with 10% FBS; U251 cells were cultured in Roswell Park Memorial Institute medium with 5% FBS. Immortalized human astrocytes (a kind gift from Dr. Russ Pieper, University of California San Francisco) were grown in DMEM/F12 with 4.5 g/L of glucose, supplemented with 10% FBS. All cells were grown at 37° C. in 5% CO2-[…]. All cell lines unless specified were originally obtained from ATCC. They were not further authenticated.
(§2) In this example, samples of glioblastoma cells (U87) and astrocyte cells (non-cancer control) were exposed various disclosed compounds to determine the effectiveness of the compounds for inhibiting cell growth.

glioblastoma cells (U87) = test: IC50 for inhibiting cell growth in glioblastoma cells (U87); type: cell-based, human; conditions: inhibition of cell growth
Experimental: as §1, §2

[2] = system: MSC mesenchymal stem cells (non-cancer control); test: Cell survival / crystal violet staining of MSC cells; type: cell-based; conditions: 20 μM
Source text: (§3) RH30 and RD are rhabdomyosarcoma cells. MSC is mesenchymal stem cells, as a non-cancer control.

U87 xenograft = U87 xenograft model, intra-tumor injection; type: in vivo, NIH-III Nude mice
Experimental: Astrocytes stably expressing AVIL or an empty vector were injected subcutaneously into the flanks of NIH-III Nude mice. Around 2 million cells were used per injection. The animals were monitored twice a week. For drug treatment, 1.5 million U87 cells were injected subcutaneously into the flanks of NIH-III Nude mice. Compound 56750508 was dissolved in 50% DMSO, 15% ethanol, and 35% water. After tumors became visible (around 2 weeks), 50 ul drug solution or solvent was injected intra-tumorly. Three injections were performed with two day intervals.
(§4) The effect of the three compounds on LIN28B expression was tested. […] To test whether the compounds can trigger transcriptome response similar to siAVIL, a microarray analysis of the U87 cells treated with these compounds was performed. Strikingly, cells treated with all three compounds had similar transcriptome profiles when compared to that of the siAVIL transfected cells, by both gene ontology and Gene Set Enrichment analyses (example in FIGS. 7F and 7G).

U87 cells = test: Microarray analysis of U87 cells treated with compounds (gene ontology, GSEA); type: cell-based, human; conditions: gene set downregulated by siAVIL
Experimental: as §4

[3] = system: RH30 rhabdomyosarcoma cells; test: Cell survival / crystal violet staining of RH30 cells; type: cell-based; conditions: 20 μM
Experimental: as §1, §3

[4] = target: T1, advillin recombinant protein (AVIL) (Homo sapiens, UniProt O75366); test: Thermal shift assay; type: binding; conditions: for binding with advillin recombinant protein: thermal shift assay
T1 construct: MBP (N, cleaved yes); made in house; host or cells: E. coli BL21 (DE3)
T1 sequence (O75366 1-819): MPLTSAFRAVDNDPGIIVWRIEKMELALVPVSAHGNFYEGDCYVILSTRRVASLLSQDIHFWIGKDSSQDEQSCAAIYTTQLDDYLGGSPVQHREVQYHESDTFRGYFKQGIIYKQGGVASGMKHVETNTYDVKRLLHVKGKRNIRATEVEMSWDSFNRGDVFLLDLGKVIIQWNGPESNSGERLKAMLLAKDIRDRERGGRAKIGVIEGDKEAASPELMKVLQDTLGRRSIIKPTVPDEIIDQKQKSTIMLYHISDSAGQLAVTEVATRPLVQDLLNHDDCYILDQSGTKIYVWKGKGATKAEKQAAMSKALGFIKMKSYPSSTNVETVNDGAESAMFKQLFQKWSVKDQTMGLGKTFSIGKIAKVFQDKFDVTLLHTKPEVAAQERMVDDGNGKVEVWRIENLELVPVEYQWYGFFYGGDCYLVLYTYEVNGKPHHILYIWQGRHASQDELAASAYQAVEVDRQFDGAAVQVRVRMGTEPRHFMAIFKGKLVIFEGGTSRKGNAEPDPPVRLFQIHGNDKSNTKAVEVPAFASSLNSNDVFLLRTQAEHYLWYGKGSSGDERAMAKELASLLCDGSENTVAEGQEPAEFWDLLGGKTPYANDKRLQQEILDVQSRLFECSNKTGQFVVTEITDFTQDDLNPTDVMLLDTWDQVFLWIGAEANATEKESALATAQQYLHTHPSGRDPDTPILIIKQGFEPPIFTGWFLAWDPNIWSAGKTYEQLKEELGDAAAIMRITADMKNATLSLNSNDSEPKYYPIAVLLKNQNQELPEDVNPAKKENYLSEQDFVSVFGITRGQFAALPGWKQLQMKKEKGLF
Experimental: Protein purification. The sequence for human Advillin (AVIL) was cloned into the pMAL-c4x vector. The corresponding plasmid was transformed into BL21 (DE3) cells. Expression of MBP-AVIL was induced at OD600≈0.7 by the addition of 1 mM IPTG, and continued for 18 hrs at 23° C. Harvested cells were subsequently resuspended in 20 mM Tris-HCl pH 7.4, 200 mM NaCl, 1 mM EDTA, 1 mM DTT (Wash Buffer), supplemented with Complete Protease Inhibitor Cocktail (Roche), lysed in Emulsiflex C3 (AVESTIN) and cell debris was removed by centrifugation. MBP-AVIL was immobilized on Amylose Resin (New England BioLabs) followed by extensive washing (>50 column volumes) with Wash Buffer. Protein was eluted with Wash Buffer supplemented with 10 mM Maltose. After overnight incubation with TEV protease, MBP-tag was removed by size exclusion on HiLoad 16/600 Superdex 200 pg columns, previously equilibrated to 20 mM HEPES, pH 7.4, 50 mM NaCl, 1 mM DTT (Protein Buffer). Recombinant AVIL was flash-frozen in liquid nitrogen and stored in −80° C.
Thermal shift assay. SYPRO Orange (ThermoFisher Scientific) was added to 0.5 mg/ml AVIL (in Protein Buffer) in a 1:4500 ratio. 2.5 uL increasing concentrations of candidate compounds were added to 22.5 μL of AVIL/SYPRO Orange mixture on a 96 well plate (10% final concentration of DMSO). Protein unfolding was measured in a CFX96 qPCR (Bio-Rad) instrument with 0.2° C./15 sec steps, over the range of 20-90° C.

[5] = system: RD rhabdomyosarcoma cells; test: Cell survival / crystal violet staining of RD cells; type: cell-based; conditions: 20 μM
Experimental: as §1, §3

[6] = system: GBM lines (U87, A172, U251, and T98G); test: Cellular assays using GBM cell lines and immortalized astrocytes; type: cell-based, human; conditions: four GBM lines (U87, A172, U251, T98G) versus astrocytes
Experimental: as §1
To investigate whether AVIL is a viable drug target, a platform of small-molecule microarray was utilized (Bradner et al., 2006a; Bradner et al., 2006b) in order to identify compounds that interact with the AVIL protein. 50,000 small molecules were screened with recombinant advillin protein, including commercially available compounds, products of diversity-oriented synthesis, and known bioactive compounds. From these compounds, 82 advillin-interacting compounds were identified (FIG. 7A). […] Pubchem ID for the three compounds are as follows: Compound A is CID 56750508, Compound B is CID 56890068, and Compound C is CID 70768068.

[7] = three intra-tumor injections with two day intervals, versus solvent control, at harvest

| IC50 (glioblastoma cells (U87); Homo sapiens) [µM] | Structure (SMILES) | IC50 ([1]; Homo sapiens, Astrocyte) [µM] | also measured |
| --- | --- | --- | --- |
| 39 | Nc1cc(N2CCCC(CCCc3ccccc3)(C(=O)O)C2)nc(N)n1 (stereo not shown) [K] | 34 | – |
| 4 | Nc1nccc(N2CCC(CO)(CCCc3ccccc3)CC2)n1 [F] | 28 | – |
| 9 | Nc1nccc(N2CCCC(CO)(CCCc3ccccc3)C2)n1 (stereo not shown) [Compound A] | 55 | effect on MSC cells [2]: no significant effect; side effect in the animals (U87 xenograft; three injections): did not observe any obvious side effect; tumor volume (U87 xenograft; [7]): significantly smaller; tumor weight (U87 xenograft; [7]): significantly smaller; GSEA enrichment score (U87 cells): highest GSEA enrichment score; effect on RH30 cells [3]: most if not all of the RH30 and RD cells were wiped out; melting temperature (Tm) shift of AVIL protein ([4]; increasing concentrations of compound): dose-dependent melting temperature (Tm) shift; binding with advillin recombinant protein [4]: confirmed binding; effect on RD cells [5]: most if not all of the RH30 and RD cells were wiped out; IC50 values in GBM lines compared to astrocytes [6]: significantly different IC50 values |
| – | c1ccc(CCC2CCN(CC3[C@H]4CNC[C@@H]34)CC2)cc1 (stereo partly shown) [Compound B] | – | binding with advillin recombinant protein [4]: confirmed binding; IC50 values in GBM lines compared to astrocytes [6]: significantly different IC50 values |
| – | Nc1cc(N2CCCC(CO)(CCCc3ccccc3)C2)nc(N)n1 (stereo not shown) [H] | – | IC50 [1]: 59 µM; IC50 (glioblastoma cells (U87)): 8 µM |
| 10 | Nc1cc(N2CCCC(CO)(CCCc3ccccc3)C2)nc(N)n1 (stereo not shown) [G] | > 80 | – |
| 20 | Nc1cc(N2CCCC(CO)(CCCc3ccccc3)C2)ncn1 (stereo not shown) [J] | > 80 | – |
| 1 | Nc1nccc(N2CCCC(CCc3ccccc3)C2)n1 (stereo not shown) [E] | 30 | – |
| 19 | Cc1nccc(N2CCCC(CO)(CCCc3ccccc3)C2)n1 (stereo not shown) [Compound I] | 80 | – |
| 2.5 | Nc1cc(N2CCC(CO)(CCCc3ccccc3)CC2)nc(N)n1 [D] | 51 | – |
| – | CN(Cc1ccc(Oc2ccccc2)cc1)C(=O)C1C[C@@H](O)CN1 (stereo partly shown) [Compound C] | – | binding with advillin recombinant protein [4]: confirmed binding; IC50 values in GBM lines compared to astrocytes [6]: significantly different IC50 values |
| > 80 | CCCC1(CO)CCCN(c2cc(N3CCN(C)CC3)nc(N)n2)C1 (stereo not shown) [L] | > 80 | – |
